Measured values reported in publication PMC8949104, “Bioactivity-Guided Separation of Anti-Cholinesterase Alkaloids from Uncaria rhynchophlly (Miq.) Miq. Ex Havil Based on HSCCC Coupled with Molecular Docking” (Molecules, 2022).
Read-outs that look alike come from different tables or passages of the source.

Experiments:
Acetyl-cholinesterase = target: T1, Acetyl-cholinesterase (Electrophorus electricus, UniProt O42275); assay: biochemical; format: biochemical
T1 construct: Acetyl-cholinesterase was from electric eel; purchased Sigma-Aldrich; host or cells: electric eel (natural source)
From the text: (§1) HPLC-grade methanol and acetonitrile were purchased from Shanghai, China (Sinopharm Chemical Reagent Co., Ltd., Shanghai, China). Acetyl-cholinesterase was from electric eel, butyryl-cholinesterase was from equine serum, and acetylthiocholine iodide was purchased from Sigma-Aldrich (Sigma-Aldrich company, St. Louis, MO, USA). […] AB-8 macroporous resin was purchased from Yuanye (Yuanye Biochemical Technology Co., Ltd., Shanghai, China).
(§2) The Ellman method was used to determine the inhibitory activity of acetyl-cholinesterase and butyryl-cholinesterase of each monomer compound. Briefly, 150 µL of PBS buffer solution (pH = 7.4), 10 µL of the tested compound solution, and 20 µL of acetyl-cholinesterase or butyryl-cholinesterase solution (concentration of 0.2 U/mL) were transferred to a 96-well plate and placed in a gas bath constant temperature oscillator at 37 °C for 15 min. […] Then, 10 µL PBS was added to the blank group to exclude other irrelevant factors from affecting the experimental results and ensure the rationality of the experimental results. […] Inhibition Rate = (Anegative control group − Atest group/Anegative control group − Ablank group) × 100%(2)

Butyryl-cholinesterase = target: T2, Butyryl-cholinesterase (Equus caballus, UniProt P81908); assay: biochemical; format: biochemical; details: for IC50: Ellman method, 37 °C, PBS pH 7.4, 412 nm, read-out: IC50 Value Butyrylcholinesterase
T2 construct: butyryl-cholinesterase was from equine serum; purchased Sigma-Aldrich; host or cells: equine serum
From the text: as §1, §2

[1] = Ellman method, 37 °C, PBS pH 7.4, 412 nm, read-out: IC50 Value Acetylcholinesterase

T2 sequence (P81908 whole entry): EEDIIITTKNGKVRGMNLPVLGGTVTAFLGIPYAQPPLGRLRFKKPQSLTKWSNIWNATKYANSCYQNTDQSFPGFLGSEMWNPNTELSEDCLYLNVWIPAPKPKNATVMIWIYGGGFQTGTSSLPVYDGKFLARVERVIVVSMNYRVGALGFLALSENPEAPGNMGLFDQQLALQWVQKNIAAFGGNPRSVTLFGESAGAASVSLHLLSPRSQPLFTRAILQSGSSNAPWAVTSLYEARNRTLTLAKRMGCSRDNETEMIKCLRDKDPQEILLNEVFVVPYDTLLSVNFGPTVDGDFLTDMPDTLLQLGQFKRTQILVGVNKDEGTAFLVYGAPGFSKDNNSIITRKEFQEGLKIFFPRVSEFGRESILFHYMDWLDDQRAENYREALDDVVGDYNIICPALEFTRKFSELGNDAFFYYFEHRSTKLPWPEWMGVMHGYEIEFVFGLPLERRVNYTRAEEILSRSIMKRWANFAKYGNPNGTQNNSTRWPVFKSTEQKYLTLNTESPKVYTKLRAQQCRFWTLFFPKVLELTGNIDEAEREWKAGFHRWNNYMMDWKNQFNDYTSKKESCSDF
T1 sequence (O42275 24-633): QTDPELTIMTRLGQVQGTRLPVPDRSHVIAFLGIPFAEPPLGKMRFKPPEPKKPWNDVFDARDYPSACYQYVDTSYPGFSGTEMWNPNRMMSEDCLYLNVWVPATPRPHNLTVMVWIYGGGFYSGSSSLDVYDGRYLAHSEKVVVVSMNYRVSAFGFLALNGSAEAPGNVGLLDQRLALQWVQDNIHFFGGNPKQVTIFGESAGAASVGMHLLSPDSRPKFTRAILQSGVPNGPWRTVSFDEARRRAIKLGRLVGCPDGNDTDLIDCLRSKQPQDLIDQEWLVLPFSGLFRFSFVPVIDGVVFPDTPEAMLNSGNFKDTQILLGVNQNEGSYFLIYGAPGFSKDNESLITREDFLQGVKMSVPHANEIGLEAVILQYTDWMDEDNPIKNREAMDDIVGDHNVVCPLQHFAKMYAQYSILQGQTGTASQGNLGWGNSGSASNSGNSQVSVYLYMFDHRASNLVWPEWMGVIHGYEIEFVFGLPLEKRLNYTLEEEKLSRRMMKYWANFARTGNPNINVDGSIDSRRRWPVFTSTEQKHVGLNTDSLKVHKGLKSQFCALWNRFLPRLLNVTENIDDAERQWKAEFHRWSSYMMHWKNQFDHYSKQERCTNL

Compound | IC50 (Acetyl-cholinesterase; [1]) | acetyl-cholinesterase inhibitory activity (in words) (Acetyl-cholinesterase; qualitative statement) | IC50 (Butyryl-cholinesterase) | butyryl-cholinesterase inhibitory activity (in words) (Butyryl-cholinesterase; qualitative statement) | IC50 (Acetyl-cholinesterase)
C=C[C@H]1C(O[C@H]2O[C@H](CO)[C@@H](O)[C@H](O)[C@H]2O)OC=C2C(=O)N3CC[C@]4(C(=O)Nc5ccccc54)[C@H]3C[C@H]21 (stereo partly drawn) [Compound 1, 7-epi-javaniside] | 2.85 ± 0.5 µM | close to that of the positive drug | 2.13 ± 0.1 µM | close to that of the positive drug | –
COC(=O)C1=COC(OC2OC(CO)C(O)C(O)C2O)C2C(O)CN3CCc4c([nH]c5ccccc45)C3CC12 (stereo not drawn) [Compound 5, 3α-dihydrocadambine] | 37 ± 1.57 µM | – | 33.3 ± 0.51 µM | – | –
COC(=O)C1=COC(OC2OC(CO)C(O)C(O)C2O)C2C3CN4CCc5c([nH]c6ccccc56)C4(CC12)O3 (stereo not drawn) [Compound 4, cadambine] | – | – | 30.7 ± 0.69 µM | – | 26.1 ± 2.12 µM
C=CC1C2C[C@@H]3c4[nH]c5ccccc5c4CCN3C(=O)C2=CO[C@H]1O[C@H]1O[C@H](CO)[C@@H](O)[C@H](O)[C@H]1O (stereo partly drawn) [Compound 3, strictosamide] | – | – | 6.47 ± 0.72 µM | – | 46.6 ± 0.58 µM
C=CC1C2C[C@H]3c4[nH]c5ccccc5c4CCN3C(=O)C2=CO[C@H]1O[C@H]1O[C@H](CO)[C@@H](O)[C@H](O)[C@H]1O (stereo partly drawn) [Compound 2, vincosamide] | – | – | 23.18 ± 0.14 µM | – | 12.4 ± 0.86 µM
